Reference: paper PMC9259769, “Biochemical characterization and peptide mass fingerprinting of two glutathione transferases from Biomphalaria alexandrina snails (Gastropoda: Planorbidae)” (Journal of Genetic Engineering & Biotechnology, 2022)
Where two headings read alike, the source gives them in different places.

Tests used:
BaGST3 [1] = test: Inhibition of GSH-CDNB-conjugating activity and type of inhibition; type: biochemical, Biomphalaria alexandrina; conditions: for IC50: GSH-CDNB-conjugating activity, standard assay conditions; for Type of inhibition / Vmax in the presence of inhibitor: CDNB as substrate; for Type of inhibition: inhibitor at less than I20; for Vmax in the presence of inhibitor: inhibitor at less than I20, without inhibitor 48.8
Method: (§1) One unit of transferase activity is defined as the amount of enzyme which catalyzes the formation of 1 μmol of thioether per min, and the specific activity is expressed as μmol/min/mg protein.
(§2) The IC50 values were determined according to Yalcin [18]. The IC50 values were determined by plotting percentage activity values versus log inhibitor concentrations.
(§3) The type of inhibition of BSP, hematin, and CB was also examined by studying the effect of constant concentration (less than IC20) of each inhibitor on the Km (CDNB) and Vmax of BaGST2 and BaGST3.

BaGST2 [2] = test: as above; type: biochemical, Biomphalaria alexandrina; conditions: for IC50: GSH-CDNB-conjugating activity, standard assay conditions; for Type of inhibition / Vmax in the presence of inhibitor: CDNB as substrate; for Type of inhibition: inhibitor at less than I20; for Vmax in the presence of inhibitor: inhibitor at less than I20, without inhibitor 75.5
Method: as §1, §2, §3

[3] = molecular target: Biomphalaria alexandrina glutathione transferase BaGST3 (Biomphalaria alexandrina); test: SEC; Sephadex G-75 column (90 x 1.4 cm), 20 mM Tris-HCl pH 8.0, 100 mM NaCl, 4 °C; calibrated with standard proteins; apparent MW about 45 kDa compared with the subunit MW of 23.6 kDa by SDS-PAGE
BaGST3 [4] = test: Substrate specificity (glutathione transferase and peroxidase assays); type: biochemical, Biomphalaria alexandrina
Text: as §1
(§4) Enzyme activity with various aromatic substrates, namely, bromosulfophthalein (BSP), 1, 2-dichloro-4-nitrobenzene (DCNB), p-nitrophenethyl-bromide, and ethacrynic acid (EA), was examined as described.
(§5) Substrate specificities of BaGST2 and BaGST3 toward several compounds were studied.

BaGST2 [5] = test: as above; type: biochemical, Biomphalaria alexandrina
Text: as §1, §4, §5

BaGST3 [6] = test: Kinetic studies with varied GSH and CDNB concentrations; type: biochemical, Biomphalaria alexandrina
Text: as §1

BaGST2 [7] = test: as above; type: biochemical, Biomphalaria alexandrina; conditions: 25 °C, substrate varied (CDNB 0.01-1.5 mM, GSH 0.025-1.5 mM)
Text: as §1

Q: What does the source list for N[C@@H](CCC(=O)N[C@@H](CSCc1ccc(Br)cc1)C(=O)NCC(=O)O)C(=O)O [S-P-bromobenzyl-GSH]?
A: IC50 (BaGST3 [1]): 34.9 µM; IC50 (BaGST2 [2]): 9.3 µM

Q: With Nc1c(S(=O)(=O)O)cc(Nc2ccc(Nc3nc(Cl)nc(Nc4ccccc4S(=O)(=O)O)n3)c(S(=O)(=O)O)c2)c2c1C(=O)c1ccccc1C2=O [CB, Cibacron Blue] as the molecule, how does the Type of inhibition (BaGST3 [1]) read?
A: Competitive

Q: And the “Vmax in the presence of inhibitor” value (BaGST3 [1])?
A: 48.8 μmol/min/mg protein

Q: And the IC50 (BaGST3 [1])?
A: 0.58 µM

Q: What about the Type of inhibition (BaGST2 [2]) of the same molecule?
A: Competitive

Q: What about the “Vmax in the presence of inhibitor” value (BaGST2 [2]) of the same molecule?
A: 75.5 μmol/min/mg protein

Q: What about the IC50 (BaGST2 [2]) of the same molecule?
A: 2.35 µM

Q: For “Biomphalaria alexandrina glutathione transferase BaGST3 (enzyme)”, which stoichiometry N [3] is on record?
A: 2

Q: Which “Activity toward substrate (in words)” value (BaGST3 [4]; BaGST3) does the source give for C=C(CC)C(=O)c1ccc(OCC(=O)O)c(Cl)c1Cl [EA, ethacrynic acid] here?
A: high activity

Q: And the “Substrate specificity (specific activity)” value (BaGST3 [4]; BaGST3, means ± SD, n ≥ 4)?
A: 2.60 ± 0.10 µmol/min/mg

Q: And the “Activity toward substrate (in words)” value (BaGST2 [5]; BaGST2)?
A: high activity

Q: What about the “Substrate specificity (specific activity)” value (BaGST2 [5]; BaGST2, means ± SD, n ≥ 4) of the same molecule?
A: 3.80 ± 0.11 µmol/min/mg

Q: Which Type of inhibition (BaGST3 [1]) does the source give for C=CC1=C(C)c2cc3[n-]c(cc4[n-]c(cc5nc(cc1n2)C(C)=C5C=C)c(C)c4CCC(=O)O)c(CCC(=O)O)c3C.O.[Fe+2] [Hematin, hematin] here?
A: Noncompetitive

Q: And the “Vmax in the presence of inhibitor” value (BaGST3 [1])?
A: 15.8 μmol/min/mg protein

Q: What about the IC50 (BaGST3 [1]) of the same molecule?
A: 0.46 µM

Q: What about the Type of inhibition (BaGST2 [2]) of the same molecule?
A: Mixed

Q: What about the “Vmax in the presence of inhibitor” value (BaGST2 [2]) of the same molecule?
A: 13.7 μmol/min/mg protein

Q: What about the IC50 (BaGST2 [2]) of the same molecule?
A: 1.35 µM

Q: Which results are given for N[C@@H](CCC(=O)N[C@@H](CS)C(=O)NCC(=O)O)C(=O)O [GSH, γ-L-glutamyl-L-cysteinyl-glycine]?
A: Km (BaGST3 [6]; read-out: Km (GSH), high GSH concentrations, non-Michaelian, GSH 0.5-5 mM): 610 µM; Km (BaGST3 [6]; read-out: Km (GSH), low GSH concentrations, non-Michaelian, GSH 0.025-0.5 mM): 150 µM; Km (BaGST2 [7]): 220 µM

Q: With O=[N+]([O-])c1ccc(Cl)c(Cl)c1 [DCNB, 1,2-dichloro-4-nitrobenzene] as the molecule, how does the “Activity toward substrate (in words)” value (BaGST3 [4]; BaGST3) read?
A: low activity

Q: And the “Substrate specificity (specific activity), DCNB × 10^3” value (BaGST3 [4]; BaGST3, means ± SD, n ≥ 4)?
A: 10 ± 0.6 μmol/min/mg × 10^3

Q: What about the “Activity toward substrate (in words)” value (BaGST2 [5]; BaGST2) of the same molecule?
A: low activity

Q: And the “Substrate specificity (specific activity), DCNB × 10^3” value (BaGST2 [5]; BaGST2, means ± SD, n ≥ 4)?
A: 30 ± 1.5 μmol/min/mg × 10^3

Q: Which “Activity toward substrate (in words)” value (BaGST3 [4]; BaGST3) does the source give for O=C1OC(c2ccc(O)c(S(=O)(=O)O)c2)(c2ccc(O)c(S(=O)(=O)O)c2)c2c(Br)c(Br)c(Br)c(Br)c21 [BSP, bromosulfophthalein] here?
A: did not show any detectable activity

Q: What about the “Activity toward substrate (in words)” value (BaGST2 [5]; BaGST2) of the same molecule?
A: did not show any detectable activity

Q: What about the IC50 (BaGST3 [1]) of the same molecule?
A: 95 µM

Q: And the Type of inhibition (BaGST2 [2])?
A: Competitive

Q: And the “Vmax in the presence of inhibitor” value (BaGST2 [2])?
A: 75.5 μmol/min/mg protein

Q: What about the IC50 (BaGST2 [2]) of the same molecule?
A: 80.4 µM

Q: With CCCCSCC(NC(=O)CCC(N)C(=O)O)C(=O)NCC(=O)O (stereo not drawn) [S-butyl-GSH] as the molecule, how does the IC50 (BaGST3 [1]) read?
A: 51.2 µM

Q: And the IC50 (BaGST2 [2])?
A: 69.1 µM

Q: What does the source list for CC(C)(OO)c1ccccc1 [CuOOH, cumene hydroperoxide]?
A: Activity toward substrate (in words) (BaGST3 [4]; BaGST3): peroxidase activity; Substrate specificity (specific activity) (BaGST3 [4]; BaGST3, means ± SD, n ≥ 4): 1.40 ± 0.03 µmol/min/mg; Activity toward substrate (in words) (BaGST2 [5]; BaGST2): peroxidase activity; Substrate specificity (specific activity) (BaGST2 [5]; BaGST2, means ± SD, n ≥ 4): 0.60 ± 0.02 µmol/min/mg

Q: Which results are given for O=[N+]([O-])c1ccc(Cl)c([N+](=O)[O-])c1 [CDNB, 1-chloro-2,4-dinitrobenzene]?
A: Km (BaGST3 [6]; 25 °C, CDNB varied 0.01-1.5 mM, read-out: Km): 50 µM; Km (BaGST2 [7]): 3330 µM; Specific activity toward CDNB (BaGST3 [4]; BaGST3 after GSH-Sepharose, 346-fold purification): 45.2 μmol/min/mg protein; Specific activity toward CDNB (BaGST2 [5]; BaGST2 after GSH-Sepharose, 146-fold purification): 19.0 μmol/min/mg protein

Q: Which results are given for CCCCCCSC[C@H](NC(=O)CC[C@H](N)C(=O)O)C(=O)NCC(=O)O [S–hexyl-GSH, S-hexyl-GSH]?
A: IC50 (BaGST3 [1]): 19.5 µM; IC50 (BaGST2 [2]): 36.3 µM

Q: Which results are given for O=[N+]([O-])c1ccc(CCBr)cc1 [p-Nitro-phenethylbromide, p-nitrophenethyl-bromide]?
A: Activity toward substrate (in words) (BaGST3 [4]; BaGST3): low activity; Substrate specificity (specific activity) (BaGST3 [4]; BaGST3, means ± SD, n ≥ 4): 6.00 ± 0.20 µmol/min/mg; Activity toward substrate (in words) (BaGST2 [5]; BaGST2): low activity; Substrate specificity (specific activity) (BaGST2 [5]; BaGST2, means ± SD, n ≥ 4): 2.70 ± 0.13 µmol/min/mg
